Data published in patent US7238720B2, “Pharmaceutical use of N-carbamoylazole derivatives” (Eisai R & D Management Co. Ltd., priority 2001, dated 2007).

Columns and labels:
[1] = target: T1, DPP-IV, obtained from porcine kidneys (Sus scrofa, UniProt P22411); experiment: Measurement of DPPIV inhibiting effects (Gly-Pro-p-nitroanilide, absorbance at 405 nm); assay type: biochemical; conditions: porcine kidney DPP-IV 10 mU/mL, 20 min preincubation, Gly-Pro-p-nitroanilide 0.33 mM, pH 7.4
T1 construct: DPP-IV, obtained from porcine kidneys; from tissue; host or cells: porcine kidney
Protocol: Measurement of DPPIV Inhibiting Effects
DPP-IV, obtained from porcine kidneys, was dissolved in a reaction buffer solution (50 mM Tris-HCl, pH 7.4, 0.1% BSA) such that the concentration of DPP-IV was at 10 mU/mL. This solution (110 μl) was placed into test tubes, to which compounds to be tested were further added at a quantity of 15 μl and incubated at room temperature for 20 minutes. Twenty-five microliters of a solution in which Gly-Pro-p-nitroanilide was dissolved at 2 mM was added (final concentration, 0.33 mM) to start the enzymatic reaction. The reaction time was 20 minutes. The reaction was stopped by the addition of 25 μl of 1 N phosphoric acid.

male C57BL/6N mice = experiment: Glucose-tolerance improving effects in normal mice, Experiment 3 (compound given orally 30 minutes before glucose); assay type: in vivo; conditions: for Blood Glucose, At Indicated Times After Glucose-Solution Administration (min.): 1 mg/kg oral 30 min before glucose 2 g/kg, mean ± standard error
Protocol: Test for Identifying Glucose-Tolerance Improving Effects
Effects on Glucose-Tolerance Ability of Normal Mice
Animals: Five or six male C57BL/6N mice per group (purchased from Charles River Japan, Inc.).
The suspension of the compound to be tested and 0.5% methylcellulose solution which was the vehicle control group were administered orally at a volume of 10 ml/kg, and at 30 minutes after administration, a glucose solution was administered orally at a volume of 10 ml/kg. Glucose was given at a dose of 2 g/kg.
The blood was drawn from the tail vein immediately before the administration of the compound to be tested, and immediately before and at 30, 60, and 120 minutes after the administration of the glucose solution, and subjected to the measurement of the blood glucose value.
The tail vein of the mice was injured, without anesthesia, with a razor to cause slight bleeding. Ten microliters of blood was collected, and mixed immediately with […] of 0.6 M perchloric acid. The glucose in supernatants obtained by centrifugation (1500 g, 10 min. 4° C., in a cooled centrifuge GS-6KR from Beckman Ltd.) was determined employing a Glucose CII Test Wako kit (Wako Pure Chemical Industries, Ltd.).
The results are expressed by mean value±standard error.

T1 sequence (P22411 whole entry): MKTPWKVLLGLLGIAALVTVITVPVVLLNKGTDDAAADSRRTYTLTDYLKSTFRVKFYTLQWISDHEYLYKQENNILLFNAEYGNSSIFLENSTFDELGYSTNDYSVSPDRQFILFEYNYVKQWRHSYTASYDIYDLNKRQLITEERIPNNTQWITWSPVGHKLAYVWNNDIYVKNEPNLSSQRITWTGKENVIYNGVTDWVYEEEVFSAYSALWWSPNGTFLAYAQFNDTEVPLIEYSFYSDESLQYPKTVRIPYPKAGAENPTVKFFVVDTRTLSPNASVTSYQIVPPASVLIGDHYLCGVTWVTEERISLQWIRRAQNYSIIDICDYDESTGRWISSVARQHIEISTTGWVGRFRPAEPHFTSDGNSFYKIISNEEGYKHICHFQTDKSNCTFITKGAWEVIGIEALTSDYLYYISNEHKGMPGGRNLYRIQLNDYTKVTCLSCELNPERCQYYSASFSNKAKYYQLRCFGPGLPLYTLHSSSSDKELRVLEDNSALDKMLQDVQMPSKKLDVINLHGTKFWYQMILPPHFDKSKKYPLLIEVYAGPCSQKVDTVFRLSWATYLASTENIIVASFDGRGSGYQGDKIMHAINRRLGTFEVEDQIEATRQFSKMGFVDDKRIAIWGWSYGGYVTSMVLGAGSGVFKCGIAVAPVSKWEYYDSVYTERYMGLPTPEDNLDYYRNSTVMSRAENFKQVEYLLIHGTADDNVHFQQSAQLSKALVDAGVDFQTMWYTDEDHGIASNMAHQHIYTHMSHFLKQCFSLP

## COCCOc1cccc(C)c1S(=O)(=O)c1ncn(C(=O)N(C)C)n1 [Example 43, 3-[2-(2-Methoxyethyl)oxy-6-methylphenyl]sulfonyl-1-dimethylcarbamoyl-1H-1,2,4-triazole]
[1]
  IC50: 4.34 nM
Male C57BL/6N mice; 0 min (immediately before glucose)
  Blood Glucose, At Indicated Times After Glucose-Solution Administration (min.): 89.8 ± 2.1 mg/dL
Male C57BL/6N mice; 30 min
  Blood Glucose, At Indicated Times After Glucose-Solution Administration (min.): 173.8 ± 5.1 mg/dL
Male C57BL/6N mice; 60 min
  Blood Glucose, At Indicated Times After Glucose-Solution Administration (min.): 170.8 ± 5.7 mg/dL
Male C57BL/6N mice; 120 min
  Blood Glucose, At Indicated Times After Glucose-Solution Administration (min.): 112.1 ± 2.5 mg/dL
Male C57BL/6N mice; −30 min (immediately before compound administration)
  Blood Glucose, At Indicated Times After Glucose-Solution Administration (min.): 70.8 ± 1.5 mg/dL
Male C57BL/6N mice; oral administration, result in words
  effect on glucose-tolerance ability of normal mice: distinct effect
